Here are results for 13 compounds from patent US12303570B2, “Compositions and methods for assessing eye vasculature” (MediBeacon Inc., priority 2015, dated 2025).

Data set [1] in a line: UV/vis absorption and fluorescence of pyrazine dyes. The data set is classed as physicochemical.
Another data set deals with serum protein. The conditions noted are these: immediately upon intra-venous injection; cited from earlier work.
For data set [2] the following is noted: cited from earlier work.
The mark [3] stands for this setting: 100 μM (Example 4 prints 100 μm).

Structures can show the parent of a compound that is named as a salt.

For the compound `Nc1nc(C(=O)N[C@H](CO)C(=O)O)c(N)nc1C(=O)N[C@H](CO)C(=O)O` [Example 2, 3,6-diamino-N^2,N^5-bis(D-serine)-pyrazine-2,5-dicarboxamide], in data set [1], the light absorption maximum is given as 445 nm and the light emission maximum is reported as 560 nm. For the same compound, the “UV/vis λabs” value in data set [1] (100 μM in PBS) is recorded as 434 nm. Further, in data set [1] (concentration not given), the “Fluorescence λem” value was 559 nm and the “Fluorescence λex” value was 449 nm.

In data set [1], `Nc1nc(C(=O)N[C@@H](CO)C(=O)O)c(N)nc1C(=O)N[C@@H](CO)C(=O)O` [Example 3, 3,6-diamino-N^2,N^5-bis(L-serine)-pyrazine-2,5-dicarboxamide] came in with a light absorption maximum of 445 nm and a light emission maximum of 560 nm.

For `COCCN(CCOC)C(=O)c1nc(N)c(C(=O)N(CCOC)CCOC)nc1N` [Example 4, 3,6-diamino-N^2,N^2,N^5,N^5-tetrakis(2-methoxyethyl) pyrazine-2,5-dicarboxamide], in data set [1] (setting [3]), the “Fluorescence λex” value is on record as 394 nm. Besides, the “UV/vis λabs” value in data set [1] (100 μM in PBS) worked out at 394 nm. Further, the “Fluorescence λem” value in data set [1] (100 μm) worked out at 550 nm.

Consider `Nc1nc(C(=O)NCC(O)CO)c(N)nc1C(=O)NCC(O)CO` (stereo not shown) [Example 5, 3,6-diamino-N^2,N^5-bis (2,3-dihydroxypropyl) pyrazine-2,5-dicarboxamide], for which the “UV/vis λabs” value in data set [1] (100 μM in H2O) came to 432 nm. Also, in data set [1] (concentration not given), the “Fluorescence λem” value is 558 nm and the “Fluorescence λex” value amounted to 432 nm.

Consider `COCCN(CCOC)C(=O)c1nc(N(CCOC)CCOC)c(C(=O)N(CCOC)CCOC)nc1N(CCOC)CCOC` [Example 6], for which the “UV/vis λabs” value in data set [1] (100 μM in PBS) was determined as 434 nm. In addition, in data set [1] (concentration not given), the “Fluorescence λem” value came out at 559 nm and the “Fluorescence λex” value amounted to 449 nm.

Turning to `NCCNC(=O)c1nc(N)c(C(=O)NCCN)nc1N` [Example 7, 3,6-diamino-N^2,N^5-bis(2-aminoethyl)pyrazine-2,5-dicarboxamide Bis TFA Salt], in data set [1] (100 nM), the Fluorescence λem came out at 562 nm and the “Fluorescence λex” value was 449 nm. Further, in data set [1] (100 μM in PBS), the “UV/vis λabs” value was 435 nm.

`Nc1nc(C(=O)N[C@H](CC(=O)O)C(=O)O)c(N)nc1C(=O)N[C@H](CC(=O)O)C(=O)O` [Example 8, 3,6-diamino-N^2,N^5-bis(D-aspartate)-pyrazine-2,5-dicarboxamide]: in data set [1] (100 nM), the “Fluorescence λem” value turned out to be 558 nm and the “Fluorescence λex” value is given as 449 nm. For the same compound, in data set [1] (100 μM in PBS), the “UV/vis λabs” value is recorded as 433 nm.

For `COCCOCCOCCOCCC(=O)NCCNC(=O)c1nc(N)c(C(=O)NCCNC(=O)CCOCCOCCOCCOC)nc1N` [Example 9, 3,6-diamino-N^2,N^5-bis(14-oxo-2,5,8,11-tetraoxa-15-azaheptadecan-17-yl) pyrazine-2,5-dicarboxamide], in data set [1] (100 nM), the “Fluorescence λem” value is listed as 559 nm and the “Fluorescence λex” value is reported as 437 nm. Further, the “UV/vis λabs” value in data set [1] (100 μM in PBS) came to 437 nm.

Regarding `COCCOCCOCCOCCOCCOCCOCCOCCC(=O)NCCNC(=O)c1nc(N)c(C(=O)NCCNC(=O)CCOCCOCCOCCOCCOCCOCCOCCOC)nc1N` [Example 10, 3,6-diamino-N^2,N^5-bis(26-oxo-2,5,8,11,14,17,20,23-octaoxa-27-azanonacosan-29-yl)pyrazine-2,5-dicarboxamide], in data set [1] (100 nM), the “Fluorescence λem” value is recorded as 560 nm and the “Fluorescence λex” value is 438 nm. Further, the “UV/vis λabs” value in data set [1] (100 μM in PBS) was 438 nm.

In the case of `COCCOCCOCCOCCOCCOCCOCCOCCOCCOCCOCCOCCC(=O)NCCNC(=O)c1nc(N)c(C(=O)NCCNC(=O)CCOCCOCCOCCOCCOCCOCCOCCOCCOCCOCCOCCOC)nc1N` [Example 11, 3,6-diamino-N^2,N^5-bis(38-oxo-2,5,8,11,14,17,20,23,26,29,32,35-dodecaoxa-39-azahentetracontan-41-y) pyrazine-2,5-dicarboxamide], in data set [1] (100 nM), the “Fluorescence λem” value worked out at 559 nm and the “Fluorescence λex” value is recorded as 449 nm. Further, in data set [1] (100 μM in PBS), the “UV/vis λabs” value is reported as 449 nm.

In the case of `COCCN(CCOC)c1nc(C(=O)N[C@H](CC(=O)O)C(=O)O)c(N2CCOCC2)nc1C#N` [Example 13, (R)-2-(6-(bis(2-methoxyethyl)amino)-5-cyano-3-morpholinopyrazine-2-carboxamido)succinic Acid], the Fluorescence λem in data set [1] (100 μM) was determined as 570 nm. The “Fluorescence λex” value in data set [1] (setting [3]) was found to be 449 nm. The “UV/vis λabs” value in data set [1] (100 μM in PBS) came out at 438 nm.

Regarding `O=C1OC2(c3ccc(O)cc3Oc3cc(O)ccc32)c2ccccc21` [Sodium fluorescein], in the data set with serum protein, the “converted to non-fluorescent serum protein bound molecule” value was 93%. Besides, the lipid solubility entry in data set [2] is on record as “relatively high”.

For the compound `O=C1OC2(c3ccc(O)cc3Oc3cc(O[C@@H]4O[C@H](C(=O)O)[C@@H](O)[C@H](O)[C@H]4O)ccc32)c2ccccc21` (stereo partly shown) [fluorescein glucuronide], the “fluorescent yield relative to fluorescein” value in data set [2] (metabolite versus parent) is on record as 5%.
